# Patent publication US12100497B1, “Population-based immune rescue via herd immunity mediated by cells” (Channel Content Company LLC, priority 2023, dated 2024)
# Tests used:
# [1] = vitamin D exposure over 10 years; cohort of 12,388 persons; cited from earlier work
# [2] = test system: Covid; test: One year investigation at Prestige Home Health, vitamin D protocol, Covid positive tests; assay type: in vivo, human; conditions: target vitamin D level 60 ng/ml
# Experimental: In order to test some of the concepts disclosed herein, a one year investigation was conducted to gather data where there was an objective of bringing participants to a target level of vitamin D of 60 ng/ml treated at home by staff at Prestige Home Health in Starr county, Texas and also residents of nursing homes. Data on patients and staff was provided by Yolanda Garza registered nurse (RN)/Director of Nursing (DON) on Sep. 19, 2022. For patients that followed the disclosed protocol, zero tested positive for Covid as compared to fifty-three patients who tested positive for Covid who were not on the protocol. During the same one year period, four staff members on the disclosed protocol tested positive for Covid compared to 83 staff members who tested positive who were not on the disclosed protocol. Prestige Home Health also provided portable humidifiers in homes of many of the patients treated at home. Little or no sensors were provided to determine the level of humidification. Retama Manor also tried to make indoor humidify viral safe inside their facility by including humidifiers again without sensors. Though the capacity of their humidifiers was subpar, indoor humidity in all likelihood contributed to the facility's remarkable overall success. Only one patient at Retama Manor whose Vitamin D level was in the viral safe range tested positive during the 15 month study period.
# [3] = test system: Covid; test: Retama Manor nursing home 15 month study, vitamin D protocol, Covid positive tests; assay type: in vivo, human
# [4] = test system: acute respiratory illness; conditions: higher doses of vitamin D; patients studied for a year; cited from earlier work
substance,measurement,setting,value
vitamin D,lowering of the risk of dementia,[1],40%
same,patients on the disclosed protocol who tested positive for Covid,[2]; 53 positive patients not on protocol,zero
same,staff members on the disclosed protocol who tested positive for Covid,[2]; 83 positive staff not on protocol,four
same,"Covid cases per staff member, less than the other two nursing homes",[3]; Retama Manor versus the other two nursing homes in Rio Grande City,45%
same,patients on vitamin D protocol / in viral safe range who tested positive for Covid,"[3]; Retama Manor, 15 month (six quarter) study period",one
same,Dr. Mussett's patients who tested positive for Covid,"[3]; their patients at all three nursing homes in Rio Grande City, study period",two
same,reduction in acute respiratory illness,[4],40%
